Values after ≈ are worked out from the molar mass of the structure shown. Where two headings read alike, the source gives them in different places. Where only a bound is given, the exact number is not on record here.

Series [1] concerns human monocytic cell line THP-1 (ATCC56 TIB202). Description: Cytotoxicity assay in THP-1 cells. Type of series: cell-based. The following applies: toxicity/activity index: ratio LC50 (THP-1) / MIC (M. tuberculosis H37Rv). In short, it runs like this: (§1)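 Cytotoxicity was expressed as LC50, the concentration lethal to 50% of cells. A toxicity/activity index was calculated as LC50 divided by MIC.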

Series [2] can be described thus: Cytotoxicity assay in THP-1 cells. Format: cell-based, human. To be noted: human; THP-1 cells; lethal concentration for 50% of the cell population; read-out: LC50 (the source's name). In short, it runs like this: as §1
For the next series, the system named is M. bovis BCG. Description: microbe, parasite or virus in culture. Type of series: cell-based. The following applies: Mycobacterium tuberculosis variant bovis BCG.
A further series relates to M. avium DSM 44156. Description: MIC and MBC against M. avium. Format: cell-based.
For another series, the system named is M. smegmatis mc2 155. The experiment in a line: MIC and MBC against M. smegmatis. Format: cell-based.
Series [3] can be described thus: Chemical stability in phosphate buffer pH 7.4.
The test system of series [4] is Mycobacterium tuberculosis H37Rv. The experiment in a line: MIC and MBC by broth microdilution against M. tuberculosis H37Rv. Format: cell-based, Mycobacterium tuberculosis H37Rv (ATCC 27294).
Series [5] concerns Mycobacterium smegmatis homogenate. The experiment in a line: Stability in Mycobacterium smegmatis homogenate (enzymatic hydrolysis). The following applies: Mycobacterium smegmatis homogenate, 37°C.
The nature of series [6]: Stability in human plasma (enzymatic hydrolysis).
Method: The studies of stability in human plasma were performed in human plasma diluted to 80% with phosphate buffer pH 7.4 of total concentration 0.05 M and ionic strength 0.15 M at 37°C. […] Study of enzymatic hydrolysis. […] Initial substrate concentration (ester) - 5×10^-4M with 2% ACN.
Pooled human plasma (960 µL), pH 7.4 phosphate buffered saline (216 µL), 18 µL ACN and 6 µL of a 10-1 M stock solution of the prodrug in ACN were mixed in a 2mL vial. The suspensions were incubated at 37 °C and 50 µL aliquots were removed, mixed with 450 µL of ACN: ZnSO4 1% 1:1 and centrifuged. The supernatant was removed and analysed by HPLC, the remaining substrate and the correspondent acid measured.
Two HPLC systems were used. The buffer and plasma stability studies were performed in an HPLC system with a photodiode detector L-3000 Photo Diode Array Detector, Merck-Hitachi L-6000 pump, Merck-Hitachi D-2500 integrator, and Merck RP-8 column. […] The eluant was a mixture of acetonitrile (60%/70%) and aqueous phosphate buffer with 5% of KH2PO4/H3PO4 0.025M (40%/30%). The flow rate was always 1 mL/1 min and wavelength was set at 230 nm. All quantifications were evaluated using calibration curves from stock solutions.
The initial substrate concentration was 5 x 10^-4 M in all stability assays. All incubations were carried out at pH 7.4 and 37 °C under agitation using the phosphate buffer described above as diluting agent. […] Acetonitrile (2%) was used in all studies to ensure adequate solubilization of the substrates. The benzoates were added from 10 to 1M acetonitrile stock solutions. After incubation, aliquots of 50 µL were taken into vials containing 450 µL of a 1:1 solution of 1% zinc sulfate and acetonitrile, mixed in a vortex and centrifuged for 10 min at 15,000 rpm. The supernatant was then injected into the HPLC and analysed for quantification of benzoic acid and remaining benzoate. All quantifications were performed using calibration curves.
Series [7] deals with Mycobacterium Bovis BCG infecting human macrophages THP-1. Type of series: cell-based. The following applies: compound concentration 2 µg/ml.
The conditions of series [8]: pH 7.4.
Series [9] can be described thus: Stability in Mycobacterium smegmatis homogenate (enzymatic hydrolysis). The following applies: mycobacterium smegmatis homogenate, pH 7.4.
[10] abbreviates: Mycolicibacterium smegmatis, MC2155.
The mark [11] stands for this setting: Mycobacterium tuberculosis, H37RV, M. tuberculosis H37Rv, Table 3.
The mark [12] stands for this setting: Mycobacterium tuberculosis, H37RV, M. tuberculosis H37Rv, Table 4.
[13] abbreviates: Mycobacterium tuberculosis, H37RV, M. tuberculosis H37Rv, Tables 3, 6 and 7.

Regarding `CCCCCCCCCCCCNC(=O)c1cc([N+](=O)[O-])cc([N+](=O)[O-])c1` [Compound 7e, N-dodecyl-3.5-dinitrobenzamide], the T/A in series [1] is recorded as 144. The CC50 in series [2] is 72 µg/mL (≈ 190 µM). Besides, the MBC was 0.166 µg/mL (≈ 0.437 µM) with M. bovis BCG; > 341 µg/mL against M. avium DSM 44156 (Mycobacterium avium, DSM44156); > 2.66 µg/mL in the series with M. smegmatis mc2 155 (setting [10]); 0.5 µg/mL (≈ 1.32 µM) in series [4] (setting [11]); 0.5 µg/mL (≈ 1.32 µM) in series [4] (setting [12]). The MIC against M. bovis BCG is 0.083 µg/mL (≈ 0.219 µM); against M. avium DSM 44156 (Mycobacterium avium, DSM44156) it was > 341 µg/mL; in the series with M. smegmatis mc2 155 (setting [10]) it was 0.66 µg/mL (≈ 1.74 µM); in series [4] (setting [12]), 0.5 µg/mL (≈ 1.32 µM); in series [4] (setting [13]) it was 0.5 µg/mL (≈ 1.32 µM). Moreover, the entries for the “Degradation (%) 24h” value in series [3] (24h), in series [5] and in series [6] (24h) were 0%, 1% and 0%, respectively. Also, the “Degradation (%) 48h” value is 0% in [3] (48h), 2% in series [5] and 0% in series [6] (48h). Moreover, the “Degradation (%) 72h” value in series [3] (72h) and in series [6] (72h) was 0% throughout. The “Degradation (%) 168h” value in series [3] (168h) is reported as 0%. In addition, in series [3] (332h), the “Degradation (%) 332h” value is given as 0%.
Consider `CCCCCCCCCCCCCCNC(=O)c1cc([N+](=O)[O-])cc([N+](=O)[O-])c1` [Compound 7f, N-tetradecyl-3.5-dinitrobenzamide], for which the T/A in series [1] came out at 2640. For the same compound, the CC50 in series [2] is 330 µg/mL (≈ 810 µM). Moreover, the “CFU x10^4” value in series [7] (Time 0 days) is on record as 9.2 CFUs per mL; in series [7] (Time 1 day) it was 14.16 CFUs per mL; in series [7] (Time 3 days) it was 10.08 CFUs per mL; in [7] (Time 7 days) it was 13.91 CFUs per mL. The MBC with M. bovis BCG was 0.25 µg/mL (≈ 0.613 µM); against M. smegmatis mc2 155 (setting [10]) it was 4 µg/mL (≈ 9.82 µM); in [4] (setting [11]), 0.25 µg/mL (≈ 0.613 µM); in series [4] (setting [12]), ≤ 0.5 µg/mL. Besides, the MIC was 0.25 µg/mL (≈ 0.613 µM) in the series with M. bovis BCG, 1 µg/mL (≈ 2.45 µM) against M. smegmatis mc2 155 (setting [10]), ≤ 0.5 µg/mL in series [4] (setting [12]) and 0.125 µg/mL (≈ 0.307 µM) in [4] (setting [13]). Also, the “Degradation (%) 24h” value in series [5] is on record as 1%. In addition, the “Degradation (%) 48h” value in series [5] worked out at 2%.
On to `CCCCCCCCNC(=O)c1cc([N+](=O)[O-])cc([N+](=O)[O-])c1` [Compound 7c, N-octyl-3.5-dinitrobenzamide], for which the T/A in series [1] was 6063. Also, the CC50 in series [2] turned out to be 97 µg/mL (≈ 300 µM). For the same compound, the “Degradation (%) 24h” value in [8] turned out to be 0%; in series [5], 3%. The “Degradation (%) 48h” value in series [8] is recorded as 0%; in series [5] it was 5%. Besides, the “Degradation (%) 72h” value in [8] was determined as 0%. Further, in series [8], the “Degradation (%) 168h” value is given as 0%. The “Degradation (%) 332h” value in [8] is on record as 0%. The MBC in the series with M. bovis BCG is 0.015 µg/mL (≈ 0.0464 µM); with M. avium DSM 44156 (Mycobacterium avium, DSM44156), 64 µg/mL (≈ 198 µM); with M. smegmatis mc2 155 (setting [10]), 4 µg/mL (≈ 12.4 µM); in [4] (setting [11]) it was 0.016 µg/mL (≈ 0.0495 µM); in series [4] (setting [12]), ≤ 0.062 µg/mL. Besides, the MIC in the series with M. bovis BCG is 0.015 µg/mL (≈ 0.0464 µM); against M. avium DSM 44156 (Mycobacterium avium, DSM44156) it was 32 µg/mL (≈ 99 µM); in the series on M. smegmatis mc2 155 (setting [10]), 0.25 µg/mL (≈ 0.773 µM); in series [4] (setting [12]) it was ≤ 0.062 µg/mL; in series [4] (setting [13]), 0.016 µg/mL (≈ 0.0495 µM).
On to “N-butyl-3.5-dinitrobenzamide [Compound 7a]”, for which the MBC against M. avium DSM 44156 (M. avium DSM 44156) is recorded as 512 µg/mL; in the series with M. smegmatis mc2 155 (M. smegmatis mc2 155), 4 µg/mL; in [4], 0.5 µg/mL. Also, the MIC in the series on M. avium DSM 44156 (M. avium DSM 44156) was found to be 64 µg/mL; in the series on M. smegmatis mc2 155 (M. smegmatis mc2 155), 4 µg/mL; in series [4], 0.5 µg/mL.
As usually defined, the half-life is the time in which the quantity being followed falls by half. Read a low half-life as rapid decline. `CCCCCCNC(=O)c1cc([N+](=O)[O-])cc([N+](=O)[O-])c1` [Compound 7b, N-hexyl-3.5-dinitrobenzamide]: the T/A in series [1] is given as 11645. Further, the CC50 in [2] stood at 361 µg/mL (≈ 1220 µM). Besides, the “CFU x10^4” value in series [7] (Time 0 days) turned out to be 9.2 CFUs per mL; in [7] (Time 1 day) it was 4.58 CFUs per mL; in series [7] (Time 3 days), 0.40 CFUs per mL; in series [7] (Time 7 days), 0.05 CFUs per mL. Also, the MBC was 0.25 µg/mL (≈ 0.847 µM) against M. bovis BCG, 1 µg/mL (≈ 3.39 µM) against M. smegmatis mc2 155 (setting [10]), 0.031 µg/mL (≈ 0.105 µM) in series [4] (setting [11]) and ≤ 0.5 µg/mL in series [4] (setting [12]). Moreover, the MIC against M. bovis BCG is 0.25 µg/mL (≈ 0.847 µM); in the series on M. smegmatis mc2 155 (setting [10]), 1 µg/mL (≈ 3.39 µM); in series [4] (setting [12]), ≤ 0.5 µg/mL; in [4] (setting [13]), 0.031 µg/mL (≈ 0.105 µM). The “Degradation (%) 24h” value in [5] is reported as 18%. The “Degradation (%) 48h” value in series [5] amounted to 33%. Also, the half-life at 500 µM in series [9] is 82.5 ± 1.4 h.

Source of the values: patent publication EP4345091A1, “BENZOIC ACID DERIVATIVES, METHODS AND USES THEREOF” (priority 2022, dated 2024).
